From patent publication US20100120715A1, “BETA-LACTAMASE INHIBITORS” (priority 2007, published 2010)
Where two headings read alike, the source gives them in different places.

Key:
Class A ESBL SHV-5 = target: T1, Class A ESBL SHV-5 (Klebsiella pneumoniae, UniProt P0A3M1); format: biochemical, E. coli; conditions: nitrocefin 100 μM, PBS pH 7.0, read-out: SHV-5 IC50 Range
T1 construct: made in house; host or cells: E. coli BL21(DE3) for purified enzyme; E. coli cells containing SHV-5 for extracts
T1 sequence (P0A3M1 22-286): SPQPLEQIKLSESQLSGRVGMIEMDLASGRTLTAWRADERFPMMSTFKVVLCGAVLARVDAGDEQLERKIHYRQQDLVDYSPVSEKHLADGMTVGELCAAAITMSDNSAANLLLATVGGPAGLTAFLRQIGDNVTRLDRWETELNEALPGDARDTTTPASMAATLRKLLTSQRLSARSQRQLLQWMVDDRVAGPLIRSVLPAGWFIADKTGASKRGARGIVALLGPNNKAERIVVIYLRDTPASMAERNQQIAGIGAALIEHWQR
Description: (§1) Isolation of β-lactamases. For all examples, purified beta-lactamase enzymes were used to measure a compounds' ability to inhibit the Class A ESBL CTXM-15, the Class C P99 AmpC and the Class A carbapenemase KPC-2. […] The enzyme preparations are described herein.
For the preparation of SHV-5 extracts, E. coli cells containing SHV-5 were cultured overnight with shaking at a volume of 20 mL. They were further diluted 10-fold and grown to mid-log phase (OD at 600 nm, 0.5-0.8) in Mueller-Hinton II (MH-II) broth at 37° C. The cells were pelleted at 5000 g, washed and resuspended in 2 mL PBS pH 7.0. The β-lactamase was extracted by four cycles of freezing and thawing followed by centrifugation. β-lactamase activity in the extract was measured with the chromogenic cephalosporin nitrocefin. The amount of protein in each β-lactamase preparation was determined by the bicinchoninic acid (BCA) assay.
(§2) For the isolation and purification of SHV-5, p99 AmpC, KPC-2 and CTX-M15 β-lactamases, E. coli BL21(DE3) bacterial cells carrying expression plasmids (expressed as native untagged proteins) for the individual β-lactamases were grown in 1 L of Superbroth (Teknova Inc. Hollister, Calif.) supplemented with 100 μg/ml kanamycin and 1×5052 (0.5% glycerol, 0.05% glucose and 0.2% α-lactose) at 35° C. for 18-20 hours. Cells were harvested by centrifugation (4,000×g, 4° C., 20 min), and resuspended in 50 ml of 10 mM HEPES pH 7.5 ( 1/20 of the initial volume). The cells were lysed by sonication (5 pulses of 45 seconds) at 45 W on ice. The lysates were clarified by centrifugation at 10,000×g for 40 minutes at 4° C. Samples were diluted 5-fold in 50 mM sodium acetate pH 5.0, stored overnight at 4° C., after which they were centrifuged at 10,000×g for 30 minutes to clarify, and filtered through 0.45 μm filters. The samples were loaded onto a 5 ml Capto S sepharose cation exchange column (GE Healthcare) pre-equilibrated with 50 mM sodium acetate pH 5.0. The column was washed with 5 column volumes of 50 mM sodium acetate pH 5.0 to wash out unbound protein and a linear gradient of NaCl (0 to 500 mM) was used to elute the protein (over 16 CV) from the column. Fractions were assayed for β-lactamase activity using Centa (Calbiochem, Gibbstown, N.J.) as a reporter β-lactamase substrate for activity in the isolated fractions. Active fractions were pooled, concentrated and further purified by gel filtration chromatography on a Superdex 75 prep grade gel filtration column (GE Healthcare, Piscataway, N.J.) pre-equilibrated in 50 mM Hepes pH 7.5, 150 mM NaCl. Active fractions were pooled concentrated, quantitated by BCA protein determination (Thermo Scientific, Rockford, Ill.), and frozen at −80° C. in 20% glycerol until use.
(§3) β-lactamase Inhibition. To determine the level of inhibition of β-lactamaseenzymes, compounds were diluted in PBS at pH 7.0 to yield concentrations between 100 and 0.005 μM in microtiter plates. An equal volume of diluted enzyme stock was added, and the plates were incubated at 37° C. for 10 min. Nitrocefin solution was then dispensed as substrate into each well at a final concentration of 100 μM, and the plates were immediately read with the kinetic program at 486 nm for 10 min on the SPECTRAMAX® Plus^384 (high-throughput microplate spectrophotometer; Molecular Devices Corp., Sunnyvale, Calif.). Maximum rates of metabolism were then compared to those in control wells (without inhibitors), and percentages of enzyme inhibition were calculated for each concentration of inhibitor. The concentration of inhibitor needed to reduce the initial rate of hydrolysis of substrate by 50% (IC50) was calculated as the residual activity of β-lactamase at 486 nm using the SoftMax Pro 5.0 software (Molecular Devices Corp.).

Class A ESBL CTXM-15 = target: T2, Class A ESBL CTXM-15 (Escherichia coli, UniProt Q9EXV5); assay: β-lactamase enzyme inhibition (nitrocefin hydrolysis), CTXM-15; format: biochemical; conditions: purified enzyme; nitrocefin 100 μM, PBS pH 7.0; read-out: CTXM-15 IC50 Range
T2 construct: made in house; host or cells: E. coli BL21(DE3)
T2 sequence (Q9EXV5 entry or part of it): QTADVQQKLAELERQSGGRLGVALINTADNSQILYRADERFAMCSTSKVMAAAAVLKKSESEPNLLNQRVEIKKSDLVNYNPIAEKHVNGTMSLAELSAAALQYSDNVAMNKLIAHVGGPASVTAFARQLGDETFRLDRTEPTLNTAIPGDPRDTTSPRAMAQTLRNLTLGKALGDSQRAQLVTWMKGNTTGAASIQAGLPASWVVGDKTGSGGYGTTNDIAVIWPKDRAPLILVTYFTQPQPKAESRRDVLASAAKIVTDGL
Description: as §1, §2, §3

Class C P99 AmpC = target: T3, Class C P99 AmpC (Enterobacter cloacae, UniProt P05364); format: biochemical; conditions: purified enzyme; nitrocefin 100 μM, PBS pH 7.0; read-out: P99 AmpC IC50 Range
T3 construct: made in house; host or cells: E. coli BL21(DE3)
T3 sequence (P05364 21-381): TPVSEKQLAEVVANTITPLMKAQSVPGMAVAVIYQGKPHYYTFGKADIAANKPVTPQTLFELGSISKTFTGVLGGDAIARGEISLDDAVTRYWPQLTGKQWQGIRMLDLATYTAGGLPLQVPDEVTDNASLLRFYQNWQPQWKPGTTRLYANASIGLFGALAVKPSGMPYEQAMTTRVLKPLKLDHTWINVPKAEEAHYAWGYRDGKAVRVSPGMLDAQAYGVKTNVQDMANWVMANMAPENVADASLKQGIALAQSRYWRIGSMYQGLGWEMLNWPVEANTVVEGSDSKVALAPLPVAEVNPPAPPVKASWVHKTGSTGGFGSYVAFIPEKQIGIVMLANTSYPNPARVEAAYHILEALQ
Description: as §1, §2, §3

[1] = target: T4, Class A carbapenemase KPC-2 (Klebsiella pneumoniae, UniProt Q9F663); assay: β-lactamase enzyme inhibition (nitrocefin hydrolysis), KPC-2; format: biochemical; conditions: purified enzyme; nitrocefin 100 μM, PBS pH 7.0; read-out: KPC-2 IC50 Range
T4 construct: made in house; host or cells: E. coli BL21(DE3)
T4 sequence (Q9F663 25-293 limits assumed): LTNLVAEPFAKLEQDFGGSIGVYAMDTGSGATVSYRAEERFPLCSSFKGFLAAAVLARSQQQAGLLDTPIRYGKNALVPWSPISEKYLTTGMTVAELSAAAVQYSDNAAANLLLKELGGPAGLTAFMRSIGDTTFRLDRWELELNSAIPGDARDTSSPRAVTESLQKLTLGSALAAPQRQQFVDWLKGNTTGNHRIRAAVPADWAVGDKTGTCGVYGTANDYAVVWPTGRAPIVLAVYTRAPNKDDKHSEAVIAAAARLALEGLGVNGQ
Description: as §1, §2, §3

[2] = tested on: E. coli expressing the Class A ESBL SHV-5; assay: microbe, parasite or virus in culture; format: cell-based; conditions: in the presence of fixed 8 μg/mL Ceftazidime
Text: (§4) To determine the ability of test compounds to potentiate the inhibition of the growth of bacterial strains producing beta-lactamase enzymes, classic cell based screening assays were employed. Four bacteria strains producing beta-lactamase enzymes were used: K. pneumoniae expressing the Class A Extended Spectrum Beta-Lactamase (ESBL) CTX-M-15, E. coli expressing the Class A ESBL SHV-5, E. cloacae expressing the Class C P99+, and K. pneumoniae expressing the Class A carbapenemase KPC-2. In order to evaluate the ability of test compounds to inhibit beta-lactamase activity, Applicants used a modification of the broth microdilution assay. The assay was conducted in Cation Adjusted Mueller Hinton Broth (CAMHB, BD # 212322, BD Diagnostic Systems, Sparks, Md.). Bacteria strains were grown for 3-5 hours in CAMBH broth. All four strains were grown in presence of 50 μg/mL ampicillin to ensure resistance is maintained. In the meantime, test compounds were diluted in DMSO to a 0.1 mg/mL stock. The compounds were added to a microtiter plate and were diluted in 2-fold serial dilutions in CAMHB in a final concentration range of 8 μg/mL to 0.015 μg/ml. An overlay of CAMHB containing a cephalosporin was added to the compounds at a final static concentration of 8 μg/ml. […] Each of these compound plates are made in quadruplicate, one for each bacteria strain. In addition to the titration of test compounds the MICs of a panel of cephalosporins is also tested to ensure the strains are behaving consistently from test to test. Once the test compound and cephalosporin are added the plates can be inoculated. Inocula are conducted according to CLSI broth microdilution method. After inoculation the plates are incubated for 16-20 hours at 37° C. then the Minimal Inhibitory Concentration (MIC) of the test compound is determined visually.

[3] = tested on: K. pneumoniae expressing the Class A carbapenemase KPC-2; assay: microbe, parasite or virus in culture; conditions: in the presence of fixed 8 μg/mL Ceftazidime
Text: as §4

[4] = tested on: K. pneumoniae expressing the Class A ESBL CTX-M-15; assay: microbe, parasite or virus in culture; format: cell-based; conditions: in the presence of fixed 8 μg/mL Ceftazidime
Text: as §4, with “An overlay of CAMHB containing a cephalosporin was added to the compounds at a final static concentration of 8 μg/ml.” left out

[5] = purified beta-lactamase enzyme (Examples 1 and 31-64)
[6] = cellular extracts of E. coli containing SHV-5 (Examples 2-30)

Row | SMILES | IC50 (Class A ESBL SHV-5; [5]) | IC50 (Class A ESBL CTXM-15) | IC50 (Class C P99 AmpC) | IC50 [1] | MIC of example compound, E. coli SHV-5 + 8 μg/mL CAZ [2] | MIC of example compound, K. pneumoniae KPC-2 + 8 μg/mL CAZ [3] | MIC of example compound, K. pneumoniae CTX-M-15 + 8 μg/mL CAZ [4] | IC50 (Class A ESBL SHV-5; [6])
1 | O=C(N[C@@H](Cc1cccc(C(=O)O)c1O)B(O)O)c1ccc(N2CCOCC2)nc1 [Example 48, (1R)-1-(6-morpholin-4-yl-pyridine-3-carbonyl)-amino-1-(3-carboxy-2-hydroxy)benzyl-methylboronic acid] | 0.1 to 1 µM | < 0.01 µM | 0.01 to 0.1 µM | < 0.01 µM | A (A represents an MIC >8 μg/mL) | C (C represents an MIC of <1 μg/mL) | – | –
2 | O=C(N[C@@H](Cc1cccc(C(=O)O)c1O)B(O)O)c1cccnc1 [Example 51, (1R)-1-(Nicotinoylamino)-2-(2-hydroxy-3-carboxyphenyl)ethyl-1-boronic acid] | 0.01 to 0.1 µM | < 0.01 µM | < 0.01 µM | < 0.01 µM | – | C (C represents an MIC of <1 μg/mL) | C (C represents an MIC of <1 μg/mL) | –
3 | O=C(N[C@@H](Cc1cccc(C(=O)O)c1O)B(O)O)c1cncnc1 [Example 60, (1R)-1-(Pyrimidine-5-carbonyl-amino)-2-(2-hydroxyl-3-carboxyphenyl)ethyl-1-boronic acid] | 0.01 to 0.1 µM | 0.01 to 0.1 µM | < 0.01 µM | < 0.01 µM | – | C (C represents an MIC of <1 μg/mL) | C (C represents an MIC of <1 μg/mL) | –
4 | O=C(CNC(=O)c1ccccc1)N[C@@H](Cc1cccc(C(=O)O)c1O)B(O)O [Example 50, (1R)-1-(Hippuric amido)-2-(2-hydroxy-3-carboxyphenyl)ethyl-1-boronic acid] | < 0.01 µM | < 0.01 µM | < 0.01 µM | < 0.01 µM | – | C (C represents an MIC of <1 μg/mL) | C (C represents an MIC of <1 μg/mL) | –
5 | CC(C)(C)CC(=O)N[C@@H](Cc1cccc(C(=O)O)c1O)B(O)O [Example 25, (1R)-1-(3,3-Dimethyl-butyrylamino)-(3-carboxy-2-hydroxy)benzyl-methylboronic acid] | – | 0.01 to 0.1 µM | 0.01 to 0.1 µM | 0.01 to 0.1 µM | – | C (C represents an MIC of <1 μg/mL) | C (C represents an MIC of <1 μg/mL) | 0.01 to 0.1 µM
6 | Cn1ccc(C(=O)N[C@@H](Cc2cccc(C(=O)O)c2O)B(O)O)n1 [Example 53, (1R)-1-(1-Methyl-1H-pyrazole-3-carbonyl-amino)-2-(2-hydroxy-3-carboxyphenyl)ethyl-1-boronic acid] | 0.1 to 1 µM | < 0.01 µM | < 0.01 µM | < 0.01 µM | – | C (C represents an MIC of <1 μg/mL) | C (C represents an MIC of <1 μg/mL) | –
7 | O=C(Cc1ccccn1)N[C@@H](Cc1cccc(C(=O)O)c1O)B(O)O.O=CO [Example 61, (1R)-1-(2-Pyridylacetylamino)-2-(2-hydroxy-3-carboxyphenyl)ethyl-1-boronic acid formate salt] | < 0.01 µM | < 0.01 µM | < 0.01 µM | 0.01 to 0.1 µM | – | C (C represents an MIC of <1 μg/mL) | C (C represents an MIC of <1 μg/mL) | –
8 | CCCCCCC(=O)N[C@@H](Cc1cccc(C(=O)O)c1O)B(O)O [Example 24, (1R)-1-(heptanoylamino)-2-(2-hydroxy-3-carboxyphenyl)ethyl-1-boronic acid] | – | < 0.01 µM | < 0.01 µM | 0.01 to 0.1 µM | – | C (C represents an MIC of <1 μg/mL) | C (C represents an MIC of <1 μg/mL) | < 0.01 µM
9 | COc1ccccc1C(=O)N[C@@H](Cc1cccc(C(=O)O)c1O)B(O)O [Example 34, (1R)-1-(2-methoxybenzoylamino)-2-(2-hydroxy-3-carboxyphenyl)ethyl-1-boronic acid] | 0.1 to 1 µM | < 0.01 µM | < 0.01 µM | 0.01 to 0.1 µM | A (A represents an MIC >8 μg/mL) | C (C represents an MIC of <1 μg/mL) | – | –
